14 compounds from patent publication US11548893B2 (priority 2017, dated 2023) can be followed below.

The EC50 is the concentration that produces a half-maximal response. A word on the CC50: it is the concentration giving 50% cytotoxicity.

For series [1], the system named is EBOV (mucin-deleted glycoprotein, VSV pseudotype). Description: microbe, parasite or virus in culture. The class given is cell-based, Zaire ebolavirus. The following applies: Zaire ebolavirus, Vero, 24 h, read-out: EC50 Pseudotype Assays EBOV.
The test system of series [2] is MARV (full-length glycoprotein, VSV pseudotype). The series is described as follows: microbe, parasite or virus in culture. The class given is cell-based, Marburg marburgvirus. The conditions noted are these: for EC50: Vesicular stomatitis virus, Vero, 24 h, read-out: EC50 Pseudotype Assays MARV.
Series [3] concerns SUDV (glycoprotein, VSV pseudotype). Description: microbe, parasite or virus in culture. The class given is cell-based, Sudan ebolavirus. The conditions noted are these: Vesicular stomatitis virus, Vero, 24 h, read-out: EC50 Pseudotype Assays SUDV.
Series [4] in a line: in vitro. The conditions noted are these: African green monkey, Cytotox CC50.
Series [5] concerns BDBV (mucin-deleted glycoprotein, VSV pseudotype). The series is described as follows: microbe, parasite or virus in culture. The format is cell-based, Bundibugyo ebolavirus. The conditions noted are these: Vesicular stomatitis virus, Vero, 24 h, read-out: EC50 Pseudotype Assays BDBV.

On to `C[C@@]12CC3CC(CN4CCC(N)CC4)(C1)C[C@](c1ccccc1)(C3)C2` [Example C69], for which the half-maximal effective concentration (EC50) in series [1] was 313 nM; in series [2], 1140 nM; in series [3], 310 nM; in series [5] it was 208 nM. Also, in series [4], the 50% cytotoxic concentration (CC50) amounted to 3800 nM.

For the compound `C[C@@]12CC3CC(C(=O)N[C@@H]4CCNC[C@H]4F)(C1)C[C@](c1ccccc1)(C3)C2` [Example C5], the concentration for a half-maximal effect (EC50) in series [1] was 169 nM; in series [2] it was greater than 3000 nM; in series [3], 775 nM; in series [5] it was 109 nM. Besides, in series [4], half-maximal cytotoxicity (CC50) was put at 11600 nM.

Turning to `C[C@]12CC3CC(CN4CCC(N)CC4)(C1)C[C@@](c1ccccc1)(C3)C2` [Example B69], the concentration for a half-maximal effect (EC50) in series [1] came to 429 nM; in series [2], 930 nM; in series [3], 710 nM; in series [5], 279 nM. For the same compound, the cytotoxic concentration (CC50) in series [4] came to 4670 nM.

On to `NC1CCN(CC23CC4CC(C2)CC(c2ccccc2)(C4)C3)CC1` [Example A68], for which the EC50 in series [1] was 600 nM; in series [2], greater than 3000 nM; in series [3], 400 nM; in series [5], 280 nM. Also, in series [4], the CC50 came to 7470 nM.

On to `CC12CC3CC(C(=O)NC4CC5CNC4C5)(C1)CC(c1ccccc1)(C3)C2` (racemic) [Example A30], for which the concentration giving a half-maximal response (EC50) was found to be 250 nM in series [1], 5000 nM in series [2], 800 nM in series [3] and 700 nM in series [5]. The 50% cytotoxic concentration (CC50) in series [4] was 30000 nM.

On to `CC[C@]12CC3CC(C(=O)N[C@H]4CC[C@H](N)CC4)(C1)C[C@@](c1ccccc1)(C3)C2` [Example B16], for which the EC50 was 16 nM in series [1], 3020 nM in series [2], 180 nM in series [3] and 57 nM in series [5].

On to `CC12CC3CC(C(=O)NC4CC5CC4CN5)(C1)CC(c1ccccc1)(C3)C2` (racemic) [Example A31], for which the EC50 in series [1], in series [2], in series [3] and in series [5] was greater than 1000 nM in each case. Also, the cytotoxic concentration (CC50) in series [4] is 26000 nM.

Turning to `CC[C@@]12CC3CC(C(=O)N[C@H]4CC[C@H](N)CC4)(C1)C[C@](c1ccccc1)(C3)C2` [Example C16], the concentration giving a half-maximal response (EC50) in series [1] is 353 nM; in series [2] it was 2970 nM; in series [3], 940 nM; in series [5], 388 nM.

For the compound `C[C@@]12CC3CC(C(=O)N[C@H]4CCNC[C@@H]4F)(C1)C[C@](c1ccccc1)(C3)C2` [Example C6], the EC50 in series [1] worked out at 320 nM; in series [2] it was 2980 nM; in series [3] it was 480 nM; in series [5], 250 nM. Moreover, in series [4], half-maximal cytotoxicity (CC50) was put at 12700 nM.

With `CCC12CC3CC(CN[C@H]4CC[C@H](N)CC4)(C1)CC(c1ccccc1)(C3)C2` (stereo partly shown) [Example A66], the EC50 amounted to 220 nM in series [1], 970 nM in series [2], 490 nM in series [3] and 199 nM in series [5]. In series [4], this compound gave a CC50 of 4060 nM.

For `CC12CC3CC(CN[C@H]4CC[C@H](N)CC4)(C1)CC(c1ccccc1)(C3)C2` (stereo partly shown) [Example A65], the half-maximal effective concentration (EC50) worked out at 280 nM in series [1], 890 nM in series [2], 180 nM in series [3] and 175 nM in series [5]. The cytotoxic concentration (CC50) in series [4] amounted to 1620 nM.

For `C[C@@]12CC3CC(C(=O)N[C@H]4CN5CCC4CC5)(C1)C[C@](c1ccccc1)(C3)C2` [Example C58], the concentration giving a half-maximal response (EC50) in series [1] is 785 nM; in series [2], 100 nM; in series [3] it was 1010 nM; in series [5], 188 nM. In addition, in series [2], the “fold more potent against Marburgvirus infection compared to the opposite enantiomer” value came out at 16 fold. This compound showed a 50% cytotoxic concentration (CC50) in series [4] of 10100 nM.

As to `CC12CC3CC(C(=O)N4CC[C@H](N)C4)(C1)CC(c1ccccc1)(C3)C2` (mixture of isomers) [Example A54], the values for the 50% effective concentration (EC50) in series [1], in series [3] and in series [5] were 120 nM, 350 nM and 200 nM, respectively. The same compound displayed a 50% cytotoxic concentration (CC50) in series [4] of 11300 nM.

As for `CC12CC3CC(C(=O)N4CCC5(CC5N)C4)(C1)CC(c1ccccc1)(C3)C2` (racemic) [Example A41], the results for the EC50 in series [1], in series [3] and in series [5] were 153 nM, 680 nM and 209 nM, respectively. Further, half-maximal cytotoxicity in series [4] (CC50) was put at 27700 nM.
